# From US8633245B2, “PAI-1 inhibitor” (Institute of Medicinal Molecular Design, Inc., priority 2008, dated 2014)
# Target: T1, recombinant human PAI-1 (Homo sapiens, UniProt P05121)
# T1 construct: purchased Molecular Innovations, Inc
# Assay: Test Example 1: human PAI-1 inhibitory activity (tPA fluorogenic substrate, pH 7.5 Tris buffer)
# Type: biochemical
# Conditions: Tris buffer
# Protocol: 50 mM Tris, 150 mM NaCl, 10 μg/ml BSA, 0.01% Tween80 (SIGMA-ALDRICH Corporation)
# T1 sequence (P05121 24-402): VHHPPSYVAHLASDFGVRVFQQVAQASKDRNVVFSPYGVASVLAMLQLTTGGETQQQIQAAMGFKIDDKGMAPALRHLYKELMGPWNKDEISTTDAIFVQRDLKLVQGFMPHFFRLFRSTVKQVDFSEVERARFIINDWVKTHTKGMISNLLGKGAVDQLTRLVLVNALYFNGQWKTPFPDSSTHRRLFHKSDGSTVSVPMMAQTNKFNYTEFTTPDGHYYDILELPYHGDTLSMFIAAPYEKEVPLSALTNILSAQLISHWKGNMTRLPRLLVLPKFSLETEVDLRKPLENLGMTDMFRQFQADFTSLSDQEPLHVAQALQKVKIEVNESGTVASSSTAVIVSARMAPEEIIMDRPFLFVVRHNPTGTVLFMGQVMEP
SMILES,Inhibition Rate of PAI-1 Activity (%) (Compound Concentration 5 μM),Inhibition Rate of PAI-1 Activity (%) (Compound Concentration 10 μM),Inhibition Rate of PAI-1 Activity (%) (Compound Concentration 25 μM)
CCC(Oc1ccc(-c2ccc(OC(F)(F)F)cc2)cc1Oc1ccc(C(C)(C)C)cc1)C(=O)O (centres unmarked) [Compound 114],64%,87%,95%
O=C(O)COc1cc(-c2ccc(OC(F)(F)F)cc2)ccc1OCCCCc1ccccc1 [Compound 115],34%,59%,90%
CC(C)(C)c1ccc(Oc2cc(-c3ccc(OC(F)(F)F)cc3)ccc2OC(F)C(=O)O)cc1 (centres unmarked) [Compound 119],75%,93%,99%
CC(C)(C)c1ccc(Oc2cc(-c3ccc(OC(F)(F)F)cc3)ccc2OC(F)(F)C(=O)O)cc1 [Compound 120],59%,87%,98%
CC(C)(C)c1ccc(COc2ccc(-c3ccc(OC(F)(F)F)cc3)cc2OCc2nnn[nH]2)cc1 [Compound 122],29%,63%,99%
Cc1cc(C)cc(CN(C(=O)C(=O)O)c2ccc(-c3ccc(OC(F)(F)F)cc3)cc2)c1 [Compound 123],27%,62%,–
O=C(O)C(=O)N(Cc1ccc(Cl)cc1)c1ccc(-c2ccc(OC(F)(F)F)cc2)cc1 [Compound 124],22%,49%,–
Cc1cccc(CN(C(=O)C(=O)O)c2ccc(-c3ccc(OC(F)(F)F)cc3)cc2)c1 [Compound 125],15%,31%,–
COc1ccc(-c2ccc(N(Cc3ccc(C(C)(C)C)cc3)C(=O)C(=O)O)cc2)cc1 [Compound 126],16%,43%,–
CC(C)(C)c1ccc(CN(C(=O)C(=O)O)c2ccc(-c3ccc(F)cc3)cc2)cc1 [Compound 127],21%,43%,–
CC(C)(C)c1ccc(N(C(=O)C(=O)O)c2ccc(-c3ccc(OC(F)(F)F)cc3)cc2)cc1 [Compound 128],58%,89%,–
COc1ccc(CN(C(=O)C(=O)O)c2ccc(-c3ccc(OC(F)(F)F)cc3)cc2)cc1 [Compound 131],–,10%,34%
CC(C)(C)c1ccc(CN(C(=O)C(=O)O)c2ccc(Oc3ccc(OC(F)(F)F)cc3)cc2)cc1 [Compound 132],–,32%,82%
CC(C)(C)c1ccc(CN(C(=O)C(=O)O)c2ccc(-c3ccc(OC(F)(F)F)cc3)cc2)cc1 [Compound 133],80%,92%,–
CSc1ccc(-c2ccc(N(Cc3ccc(C(C)(C)C)cc3)C(=O)C(=O)O)cc2)cc1 [Compound 134],–,14%,75%
CC(C)(C)c1ccc(CN(C(=O)C(=O)O)c2ccc(-c3ccc(Cl)cc3)cc2)cc1 [Compound 135],–,6%,67%
Cc1ccc(-c2ccc(OC(F)(F)F)cc2)cc1N(Cc1ccc(C(C)(C)C)cc1)C(=O)C(=O)O [Compound 136],16%,47%,79%
Cc1ccc(-c2ccccc2)cc1N(Cc1ccc(C(C)(C)C)cc1)C(=O)C(=O)O [Compound 137],–,5%,61%
Cc1ccc(-c2cccc([N+](=O)[O-])c2)cc1N(Cc1ccc(C(C)(C)C)cc1)C(=O)C(=O)O [Compound 138],–,4%,61%
CC(C)(C)c1ccc(CN(C(=O)C(=O)O)c2cc(-c3ccccc3)cc(C(F)(F)F)c2)cc1 [Compound 140],6%,31%,77%
Cc1ccc(-c2ccc(N(Cc3ccc(C(C)(C)C)cc3)C(=O)C(=O)O)cc2)cc1 [Compound 141],–,5%,52%
CC(C)(C)c1ccc(CN(C(=O)C(=O)O)c2ccc(-c3cccc([N+](=O)[O-])c3)cc2)cc1 [Compound 142],–,3%,33%
Cc1ccc(CN(C(=O)C(=O)O)c2ccc(-c3ccc(OC(F)(F)F)cc3)cc2)cc1 [Compound 143],–,1%,22%
